Data reported in patent publication US10334853B2, “Compositions and methods for treating ectoparasite infestation” (Larada Sciences, Inc., priority 2016, dated 2019).

System: live parasites, most commonly a louse
Assay: Petri dish screening: drops of test formulation on live parasites
Type: in vivo
Conditions: evaluation of solvents, method of Example 1
From the text: In one procedure that provides an evaluative method for determining effectiveness of commercial products, live parasites were removed from subjects' hair and placed into a Petri dish. One to two drops of test formulation were placed upon the test insect, most commonly a louse. The specimen was observed under magnification for initial movement, and was kept under observation for up to fifteen additional minutes. […] The effectiveness of the treatment was then rated on a 0-4 scale, with a score of 0 denoting total ineffectiveness and a score of 4 denoting total kill.

CCCCOC(=O)CC(C)O (stereo not shown) [Example B1, Butyl 3-hydroxybutyrate]
Efficacy Score: 0 (No elimination of live lice after 5 minutes (100% live lice remain))
